Measured values from patent US20230099344A1, “COMPOUNDS AND METHODS FOR THE TARGETED DEGRADATION OF IRAK-4” (Arvinas Operations, Inc., priority 2021, published 2023).

Target: T1, IRAK-4 (Homo sapiens, UniProt Q9NWZ3)
T1 sequence (Q9NWZ3 1-460): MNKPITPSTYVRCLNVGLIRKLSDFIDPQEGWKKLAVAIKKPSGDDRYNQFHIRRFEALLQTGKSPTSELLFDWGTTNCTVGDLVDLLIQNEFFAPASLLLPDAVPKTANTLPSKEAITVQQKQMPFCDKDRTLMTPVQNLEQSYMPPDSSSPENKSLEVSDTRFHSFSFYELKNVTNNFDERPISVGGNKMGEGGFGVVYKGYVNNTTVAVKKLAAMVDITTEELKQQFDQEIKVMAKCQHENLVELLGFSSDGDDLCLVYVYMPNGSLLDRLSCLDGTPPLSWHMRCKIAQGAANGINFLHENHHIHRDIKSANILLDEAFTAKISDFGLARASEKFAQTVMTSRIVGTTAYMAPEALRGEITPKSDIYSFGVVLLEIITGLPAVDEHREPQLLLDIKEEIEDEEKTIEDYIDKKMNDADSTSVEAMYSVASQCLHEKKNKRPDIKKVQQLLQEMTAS
Test: IRAK-4 ELISA, PBMC degradation
Format: cell-based
Parameters: endogenous in cells; host or cells: PBMC
Conditions: treated overnight
Protocol: Reagents: Human IRAK-4 Matched Antibody Pair Kit (Abcam ab218182) and ELISA Accessory Pack (Abcam ab210905).
Cell Treatment and Lysis:
1. OCI-Ly10: 200,000 cells are seeded at 1×10^6/ml in 96-well U-bottom plates 200 ul per well, treated with compound the same day. Incubate overnight. 2. PBMC: 800,000 cells are seeded at 2×10^6/ml in 96-well U-bottom deep-well plates, 400 ul per well, treated with compound the same day. Incubate overnight.
Cell lysate is collected and analyzed by ELISA for IRAK-4 levels.

Row | Structure (SMILES) | DC50 [nM] | Dmax [%] | PBMC DC90
1 | O=C1CCC(N2C(=O)c3ccc(N4CC(F)(CN5CCC(N6Cc7cc(NC(=O)c8cnn9cccnc89)c(OC8CC8)cc7C6=O)CC5)C4)cc3C2=O)C(=O)N1 (stereo not drawn) [Example 85] | 1 to 5 | 80 to 90 | C (C represents a DC90 value ≥25.0 nM and <50 nM)
2 | O=C1CCC(N2C(=O)c3ccc(N4CC(F)(CN5CCC(N6Cc7cc(NC(=O)c8cnn9cccnc89)c(OCC8CC8)cc7C6=O)CC5)C4)cc3C2=O)C(=O)N1 (stereo not drawn) [Example 89] | 1 to 5 | 80 to 90 | B (B represents a DC90 value ≥10.0 nM and <25.0 nM)
3 | CC(C)Oc1cc2c(cc1NC(=O)c1cnn3cccnc13)CN(CCOCC1CCN(c3ccc4c(c3)C(=O)N(C3CCC(=O)NC3=O)C4=O)CC1)C2=O (stereo not drawn) [Example 90] | < 1 | ≥ 90 | A (A represents a DC90 value <10.0 nM)
4 | O=C1CCC(N2C(=O)c3ccc(N4CCN(CCOC[C@H](F)CN5Cc6cc(NC(=O)c7cnn8cccnc78)c(N7CCOCC7)cc6C5=O)CC4)cc3C2=O)C(=O)N1 (stereo partly drawn) [Example 92] | 1 to 5 | ≥ 90 | B (B represents a DC90 value ≥10.0 nM and <25.0 nM)
5 | O=C1CCC(N2C(=O)c3ccc(N4CCC(COCCN5Cc6cc(NC(=O)c7cnn8cccnc78)c(N7CCOCC7)cc6C5=O)CC4)cc3C2=O)C(=O)N1 (stereo not drawn) [Example 95] | < 1 | ≥ 90 | A (A represents a DC90 value <10.0 nM)
6 | O=C1CCC(N2C(=O)c3ccc(N4CC(F)(CN5CCC(N6Cc7cc(NC(=O)c8cnn9cccnc89)c(C8CC8)cc7C6=O)CC5)C4)cc3C2=O)C(=O)N1 (stereo not drawn) [Example 100] | 1 to 5 | ≥ 90 | B (B represents a DC90 value ≥10.0 nM and <25.0 nM)
7 | O=C1CCC(N2C(=O)c3ccc(N4CC(F)(CN5CCC(N6Cc7cc(NC(=O)c8cnn9cccnc89)c(N8CCOCC8)cc7C6=O)CC5)C4)cc3C2=O)C(=O)N1 (stereo not drawn) [Example 101] | 1 to 5 | 70 to 80 | B (B represents a DC90 value ≥10.0 nM and <25.0 nM)
8 | O=C1CCC(N2C(=O)c3ccc(N4CC(F)(CN5CCC(N6Cc7cc(NC(=O)c8cnn9cccnc89)c(OCC(F)F)cc7C6=O)CC5)C4)cc3C2=O)C(=O)N1 (stereo not drawn) [Example 102] | 1 to 5 | 70 to 80 | C (C represents a DC90 value ≥25.0 nM and <50 nM)
9 | O=C1CCC(N2C(=O)c3ccc(N4CC(CN5CCC(N6Cc7cc(NC(=O)c8cnn9cccnc89)c(OCC(F)F)cc7C6=O)CC5)C4)cc3C2=O)C(=O)N1 (stereo not drawn) [Example 103] | < 1 | 80 to 90 | A (A represents a DC90 value <10.0 nM)
10 | O=C1CCC(N2Cc3cc(N4CC(F)(CN5CCC(N6Cc7cc(NC(=O)c8cnn9cccnc89)c(OCC8CC8)cc7C6=O)CC5)C4)ccc3C2=O)C(=O)N1 (stereo not drawn) [Example 104] | < 1 | 70 to 80 | A (A represents a DC90 value <10.0 nM)
11 | COc1cc(N2CC(CN3CCC(n4cc5cc(NC(=O)c6cnn7cccnc67)c(OCC6CC6)cc5n4)CC3)C2)cc2c1C(=O)N(C1CCC(=O)NC1=O)C2 (stereo not drawn) [Example 124] | < 1 | ≥ 90 | A (A represents a DC90 value <10.0 nM)
12 | COc1cc(N2CC(CN3CCC(n4cc5cc(NC(=O)c6cnn7cccnc67)c(OCC6CC6)cc5n4)CC3)C2)cc2c1C(=O)N(C1CCC(=O)NC1=O)C2=O (stereo not drawn) [Example 131] | < 1 | ≥ 90 | A (A represents a DC90 value <10.0 nM)
13 | COc1cc(N2CCC(CN3CCC(n4cc5cc(NC(=O)c6cnn7cccnc67)c(OCC6CC6)cc5n4)CC3)CC2)cc2c1C(=O)N(C1CCC(=O)NC1=O)C2 (stereo not drawn) [Example 132] | < 1 | ≥ 90 | A (A represents a DC90 value <10.0 nM)
14 | COc1cc(N2CCC(CN3CCC(n4cc5cc(NC(=O)c6cnn7cccnc67)c(OCC6CC6)cc5n4)CC3)CC2)cc2c1C(=O)N(C1CCC(=O)NC1=O)C2=O (stereo not drawn) [Example 133] | < 1 | ≥ 90 | A (A represents a DC90 value <10.0 nM)
15 | CC(C)Oc1cc2nn(C3CCN(CCN4CCN(c5ccc6c(c5)C(=O)N(C5CCC(=O)NC5=O)C6=O)CC4)CC3)cc2cc1NC(=O)c1cnn2cccnc12 (stereo not drawn) [Example 137] | < 1 | ≥ 90 | A (A represents a DC90 value <10.0 nM)
16 | CC(C)Oc1cc2nn(C3CCN(CC4CCN(c5ccc6c(c5)C(=O)N(C5CCC(=O)NC5=O)C6=O)CC4)CC3)cc2cc1NC(=O)c1cnn2cccnc12 (stereo not drawn) [Example 138] | < 1 | ≥ 90 | A (A represents a DC90 value <10.0 nM)

Row | Structure (SMILES) | DC50 [nM] | Dmax [%] | PBMC DC90
17 | CC(C)Oc1cc2nn(C3CCN(CCC4(F)CN(c5ccc6c(c5)C(=O)N(C5CCC(=O)NC5=O)C6=O)C4)CC3)cc2cc1NC(=O)c1cnn2cccnc12 (stereo not drawn) [Example 139] | < 1 | 80 to 90 | A (A represents a DC90 value <10.0 nM)
18 | CC(C)Oc1cc2nn(C3CCN(CC(F)(F)C4CN(c5ccc6c(c5)C(=O)N(C5CCC(=O)NC5=O)C6=O)C4)CC3)cc2cc1NC(=O)c1cnn2cccnc12 (stereo not drawn) [Example 147] | 1 to 5 | ≥ 90 | B (B represents a DC90 value ≥10.0 nM and <25.0 nM)
19 | O=C1CCC(N2C(=O)c3ccc(N4CCC(CN5CCC(n6cc7cc(NC(=O)c8cnn9cccnc89)c(OCC(F)F)cc7n6)CC5)CC4)cc3C2=O)C(=O)N1 (stereo not drawn) [Example 148] | < 1 | 80 to 90 | A (A represents a DC90 value <10.0 nM)
20 | CN1CC(Oc2cc3nn(C4CCN(CC5CN(c6ccc7c(c6)C(=O)N(C6CCC(=O)NC6=O)C7=O)C5)CC4)cc3cc2NC(=O)c2cnn3cccnc23)C1 (stereo not drawn) [Example 151] | 5 to 10 | 70 to 80 | D (D represents a DC90 value ≥50 nM)
21 | CN1CC(Oc2cc3nn(C4CCN(CC5CCN(c6ccc7c(c6)C(=O)N(C6CCC(=O)NC6=O)C7=O)CC5)CC4)cc3cc2NC(=O)c2cnn3cccnc23)C1 (stereo not drawn) [Example 152] | ≥ 10 | < 70 | D (D represents a DC90 value ≥50 nM)
22 | O=C1CCC(N2C(=O)c3ccc(N4CC(O)(CN5CCC(n6cc7cc(NC(=O)c8cnn9cccnc89)c(OCC8CC8)cc7n6)CC5)C4)cc3C2=O)C(=O)N1 (stereo not drawn) [Example 169] | < 1 | ≥ 90 | 122 nM
23 | O=C1CCC(N2C(=O)c3ccc(N4CCC(N5CCC(n6cc7cc(NC(=O)c8cnn9cccnc89)c(OCC8CC8)cc7n6)CC5)CC4)cc3C2=O)C(=O)N1 (stereo not drawn) [Example 170] | < 1 | ≥ 90 | A (A represents a DC90 value <10.0 nM)
24 | O=C1CCC(N2C(=O)c3ccc(N4CCC[C@H](CN5CCC(n6cc7cc(NC(=O)c8cnn9cccnc89)c(OCC8CC8)cc7n6)CC5)C4)cc3C2=O)C(=O)N1 (stereo partly drawn) [Example 174] | 1 to 5 | ≥ 90 | B (B represents a DC90 value ≥10.0 nM and <25.0 nM)
25 | O=C1CCC(N2C(=O)c3ccc(N4CCC[C@@H](CN5CCC(n6cc7cc(NC(=O)c8cnn9cccnc89)c(OCC8CC8)cc7n6)CC5)C4)cc3C2=O)C(=O)N1 (stereo partly drawn) [Example 175] | 1 to 5 | ≥ 90 | B (B represents a DC90 value ≥10.0 nM and <25.0 nM)
26 | O=C1CCC(N2C(=O)c3ccc(N4CCO[C@@H](CN5CCC(n6cc7cc(NC(=O)c8cnn9cccnc89)c(OCC8CC8)cc7n6)CC5)C4)cc3C2=O)C(=O)N1 (stereo partly drawn) [Example 176] | < 1 | ≥ 90 | A (A represents a DC90 value <10.0 nM)
27 | O=C1CCC(N2C(=O)c3ccc(N4CCO[C@H](CN5CCC(n6cc7cc(NC(=O)c8cnn9cccnc89)c(OCC8CC8)cc7n6)CC5)C4)cc3C2=O)C(=O)N1 (stereo partly drawn) [Example 177] | < 1 | ≥ 90 | A (A represents a DC90 value <10.0 nM)
28 | O=C1CCC(N2C(=O)c3ccc(N4CC(O[C@H]5CC[C@H](n6cc7cc(NC(=O)c8cnn9cccnc89)c(OCC8CC8)cc7n6)CC5)C4)cc3C2=O)C(=O)N1 (stereo partly drawn) [Example 183] | 1 to 5 | ≥ 90 | B (B represents a DC90 value ≥10.0 nM and <25.0 nM)
29 | O=C1CCC(N2C(=O)c3ccc(N4CC(CN5CCC(n6cc7cc(NC(=O)c8cnn9cccnc89)c(C8CC8)cc7n6)CC5)C4)cc3C2=O)C(=O)N1 (stereo not drawn) [Example 185] | < 1 | ≥ 90 | A (A represents a DC90 value <10.0 nM)
30 | O=C1CCC(N2C(=O)c3ccc(N4CCC(CN5CCC(n6cc7cc(NC(=O)c8cnn9cccnc89)c(C8CC8)cc7n6)CC5)CC4)cc3C2=O)C(=O)N1 (stereo not drawn) [Example 186] | 1 to 5 | ≥ 90 | A (A represents a DC90 value <10.0 nM)
31 | CC(C)Oc1cc2nn(C3CCN(CC4CN(c5ccc6c(c5)C(=O)N(C5CCC(=O)NC5=O)C6=O)C4)CC3)cc2cc1NC(=O)c1cnn2cccnc12 (stereo not drawn) [Example 187] | < 1 | ≥ 90 | A (A represents a DC90 value <10.0 nM)
32 | CC(C)Oc1cc2nn(C3CCN(CC4(F)CCN(c5ccc6c(c5)C(=O)N(C5CCC(=O)NC5=O)C6=O)CC4)CC3)cc2cc1NC(=O)c1cnn2cccnc12 (stereo not drawn) [Example 188] | 5 to 10 | ≥ 90 | D (D represents a DC90 value ≥50 nM)
